Source: US20190315823A1, “SMALL CATIONIC ANTI-BIOFILM AND IDR PEPTIDES” (priority 2013, published 2019)
Ends that are not written are not given here.

Key:
[1] = system: LPS-stimulated human peripheral blood mononuclear cells (IL1-β); assay type: cell-based; conditions: Table 12, cells stimulated with 10 ng/ml LPS; for IL1β Production: LPS alone 1313 (HH2 derivatives), 1927 (1018 derivatives), 2455 (1002 and hybrid peptides) pg/ml
[2] = system: human peripheral blood mononuclear cells (MCP-1); test: SPOT-synthesized derivative screen: production of chemokine MCP-1; assay type: cell-based; conditions: Table 12, No LPS, human PBMC, peptide at ~18-24 μM; for MCP1: background subtracted 139 (HH2 derivatives), 170 (1018 derivatives), 242 (1002 and hybrid peptides) pg/ml
Method in brief: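 PBMC from heparinized healthy-donor venous blood, Ficoll-separated, cultured at 0.75 to 1×10^6 cells/ml, 37 °C, 5% CO2, under the treatment regimens. MCP-1 in cell-free supernatants measured by capture ELISA.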

[3] = system: methicillin resistant Staphylococcus aureus (MRSA) biofilm; conditions: approximate peptide concentration […] (around 3 μg/ml); compared to untreated samples
Method in brief: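 Static biofilm assay: 1/100 dilutions of overnight cultures grown in BM2 medium (pH 7, glucose, Casamino Acids) or Luria Broth with peptide added at time zero. After 22–46 h, adherent biofilm was stained with crystal violet and read at 595 nm. Some peptides were also tested on K. pneumoniae under flow in a Bioflux system.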

Substance | Fold change in IL1β relative to no peptide LPS stimulated cells [1] | IL1β Production [1] | Fold increase in MCP1 cf. untreated cells [2] | MCP1 [2] | % Biofilm inhibition [3]
1018-K2: single substituted 1018 peptide (VKLIVAVRIWRR-NH2) [Peptide 1018-K2] | 0.10 | 127 pg/mL | 1.5 | 92 pg/mL | 68%
1002-G8: single substituted 1002 peptide (VQRWLIVGRIRK-NH2) [Peptide 1002-G8] | 0.28 | 692 pg/mL | 0.9 | -36.2 pg/mL | 42%
1002-Q12: single substituted 1002 peptide (VQRWLIVWRIRQ-NH2) [Peptide 1002-Q12] | 0.05 | 127 pg/mL | 6.1 | 1225.7 pg/mL | 65%
1002-Q4: single substituted 1002 peptide (VQRQLIVWRIRK-NH2) [Peptide 1002-Q4] | 0.47 | 1165 pg/mL | 0.9 | -28.8 pg/mL | 36%
1018-A4: single substituted 1018 peptide (VRLAVAVRIWRR-NH2) [Peptide 1018-A4] | 0.40 | 521 pg/mL | 0.5 | -88 pg/mL | 38%
HH2-V5: single substituted HH2 peptide (VQLRVRVAVIRA-NH2) | 1.29 | 1696 pg/mL | 9.3 | 1409 pg/mL | 50%
1018-Q3: single substituted 1018 peptide (VRQIVAVRIWRR-NH2) [Peptide 1018-Q3] | 1.03 | 1359 pg/mL | 1.0 | -2 pg/mL | 12%
HH2-I6: single substituted HH2 peptide (VQLRIIVAVIRA-NH2) | 0.75 | 984 pg/mL | 8.1 | 1206 pg/mL | 45%
1002-Q5: single substituted 1002 peptide (VQRWQIVWRIRK-NH2) [Peptide 1002-Q5] | 0.07 | 180 pg/mL | 0.9 | -36.2 pg/mL | 48%
1018-I8: single substituted 1018 peptide (VRLIVAVIIWRR-NH2) [Peptide 1018-I8] | 0.86 | 1125 pg/mL | 1.0 | 2 pg/mL | 39%
HH2-V11: single substituted HH2 peptide (VQLRIRVAVIVA-NH2) | 1.15 | 1515 pg/mL | 5.6 | 788 pg/mL | 51%
1018-V9: single substituted 1018 peptide (VRLIVAVRVWRR-NH2) [Peptide 1018-V9] | 0.11 | 142 pg/mL | 105 | 17711 pg/mL | 53%
HH2-W10: single substituted HH2 peptide (VQLRIRVAVWRA-NH2) | 1.02 | 1344 pg/mL | 15 | 2448 pg/mL | 48%
1018-L9: single substituted 1018 peptide (VRLIVAVRLWRR-NH2) [Peptide 1018-L9] | 0.13 | 171 pg/mL | 1.4 | 66 pg/mL | 52%
1002-L1: single substituted 1002 peptide (LQRWLIVWRIRK-NH2) [Peptide 1002-L1] | 0.05 | 127 pg/mL | 13.3 | 2988.6 pg/mL | 69%
HH2-I4: single substituted HH2 peptide (VQLIIRVAVIRA-NH2) | 0.58 | 760 pg/mL | 11 | 1669 pg/mL | 47%
HH2-G5: single substituted HH2 peptide (VQLRGRVAVIRA-NH2) | 1.27 | 1672 pg/mL | 2.9 | 321 pg/mL | 34%
1018-V2: single substituted 1018 peptide (VVLIVAVRIWRR-NH2) [Peptide 1018-V2] | 0.12 | 159 pg/mL | 1.3 | 56 pg/mL | 67%
HH2-L8: single substituted HH2 peptide (VQLRIRVLVIRA-NH2) | 0.55 | 725 pg/mL | 107 | 17953 pg/mL | 50%
1002-I7: single substituted 1002 peptide (VQRWLIIWRIRK-NH2) [Peptide 1002-I7] | 0.05 | 127 pg/mL | 3.3 | 557.5 pg/mL | 73%
1002-I2: single substituted 1002 peptide (VIRWLIVWRIRK-NH2) [Peptide 1002-I2] | 0.05 | 127 pg/mL | 3.1 | 508.6 pg/mL | 70%
1002-L4: single substituted 1002 peptide (VQRLLIVWRIRK-NH2) [Peptide 1002-L4] | 0.12 | 283 pg/mL | 3.0 | 493.6 pg/mL | 33%
HH2-R7: single substituted HH2 peptide (VQLRIRRAVIRA-NH2) | 1.49 | 1959 pg/mL | 1.6 | 98 pg/mL | 3%
1018-G6: single substituted 1018 peptide (VRLIVGVRIWRR-NH2) [Peptide 1018-G6] | 0.46 | 598 pg/mL | 22 | 3560 pg/mL | 36%
HH2-G10: single substituted HH2 peptide (VQLRIRVAVGRA-NH2) | 1.06 | 1391 pg/mL | 72 | 12063 pg/mL | 58%
